Assay results as given in patent publication US10105362B2, “Anti-tumor use of anagrelide and derivatives thereof” (SHANGHAI INSTITUTE OF MATERIA MEDICA, CHINESE ACADEMY OF …, priority 2013, dated 2018).
“Also recorded” adds a separate entry of the source.

How the values were obtained:
[1] = tested on: Bel7404 cells; test: Cell cycle arrest (summary of experiments); assay type: cell-based, human
Procedure: (§1) Logarithmic growth phase cells were seeded in 6-well culture plate in 5×10^5/mL concentration, 1.5 mL of culture medium in each well, and cultured overnight. Different concentrations of drugs were added to stimulate for a certain time, and then the cells were collected into 1.5 mL EP tube. The cells were washed with cold PBS for 1-2 times, little PBS (about 200 ul) was added and blown to uniform. 1 mL 75% ethanol was pre-cooled (prepared with PBS), and cells was added dropwise into alcohol solution which was oscillated on shaker, fixed under 4° C. overnight. After 1000rpm centrifuged for 5 min, the supernatant was discarded and 1-2 mL PBS was added to wash twice. The cells were suspended with 0.5 mL RnaseA (1.0 mg/ml), and digested under 37° C. for 1 h. The cells were resuspended with 0.5 mL 25 ug/mL PI dye liquor, and were kept in dark place under 4° C. for 30 min. The cells were filtered with 300 mesh sieve, and the cell cycle distribution was analyzed with flow cytometry.

[2] = tested on: H4 cells; test: Cell cycle arrest (summary of experiments); assay type: cell-based, human
Procedure: as §1

[3] = tested on: A498 cells; test: Cell cycle arrest (summary of experiments); assay type: cell-based, human
Procedure: as §1

[4] = tested on: FHCC98 cells; test: Cell cycle arrest (summary of experiments); assay type: cell-based, human
Procedure: as §1

[5] = tested on: SMMC7721 cells; test: RTCA real-time monitoring of cell growth; assay type: cell-based, human; settings: 100 nM, within 72 hours
Procedure: (§2) A real-time monitor from Roche was used to detect growth of cells. […] Logarithmic growth phase cells were digested with trypsin, centrifuged and resuspended, and were seeded at 3.5×10^4 /mL per well in 16-well plate matching to cell supporting real-time monitor, and the compound was dosed after 37° C. overnight incubation. Real-time monitoring was used to automatically detect the status of cell growth, and the cell number was reflected by the size of the resistance formed after cell spreading. The larger the cell index value, the faster the cell growth, and the more the number of cells. To further examine Anagrelide inhibition of cell growth, Hela, H4, FHCC98, SMMC7721, BEL7404, A498, SW1116 were taken for further experiment. Through cell real-time monitoring device, real-time monitoring of cell growth status change within 72 hours after Anagrelide administration was conducted (FIG. 3). 3000 cells/100 uL were plated, cultivated overnight, and 100 nM Anagrelide was added. The growth of cells was detected with real-time monitor.

[6] = tested on: Bel7404 cells; test: RTCA real-time monitoring of cell growth; assay type: cell-based, human; settings: 100 nM, within 72 hours
Procedure: as §2

[7] = tested on: H4 cells; test: RTCA real-time monitoring of cell growth; assay type: cell-based, human; settings: 100 nM, within 72 hours
Procedure: as §2

[8] = tested on: A498 cells; test: RTCA real-time monitoring of cell growth; assay type: cell-based, human; settings: 100 nM, within 72 hours
Procedure: as §2

[9] = tested on: HeLa cells; test: RTCA real-time monitoring of cell growth; assay type: cell-based, human; settings: 100 nM, within 72 hours
Procedure: as §2

[10] = tested on: SW1116 cells; test: RTCA real-time monitoring of cell growth; assay type: cell-based, human; settings: 100 nM, within 72 hours
Procedure: as §2

[11] = tested on: FHCC98 cells; test: RTCA real-time monitoring of cell growth; assay type: cell-based, human; settings: 100 nM, within 72 hours
Procedure: as §2

[12] = tested on: DU145 cells; test: MTT colorimetry, tumor cell growth/viability; assay type: cell-based, human; settings: 50 μM, 72 hours
Procedure: (§3) Logarithmic growth phase cells were seeded in 96-well culture plate in appropriate density (100 μl in each well). After overnight cultivation, different concentrations of drugs were added and treated for 72 h, while three wells were set for each concentration. After treatment was completed, 20 μl/well of MTT (5 mg/ml in PBS) was added to each well and affected for 3-5 hours, the medium was suctioned out completely and 100 ul/well of DMSO was added, oscillated on decolorization shaker in dark place for 10 minutes until the Blue purple crystals formazan (formazan) was completely dissolved, the OD (Optical Density) value was detected with a microplate reader (detection wavelength: […]; reference wavelength: 650 nM). In blank group, culture medium only added without cells, and in control group, DMSO in the same volume as that for drug was added. Cell viability was calculated=(OD value of experimental group−OD value of control group)/(OD value of control group−OD value of blank group). Tumor cells from different tissue source were selected, and the concentration of Anagrelide was 1 μM and 50 μM, OD value was MTT detected after administrated for 72 hours, and the cell viability was calculated using cell viability=(administered group OD-blank group OD)/(control group OD-blank group OD)*100%, and was mapped by using GraphPadPrism 4 software.

[13] = tested on: MDA-MB-231 cells; test: MTT colorimetry, tumor cell growth/viability; assay type: cell-based, human; settings: 50 μM, 72 hours
Procedure: as §3

[14] = tested on: MDA-MB-468 cells; test: MTT colorimetry, tumor cell growth/viability; assay type: cell-based, human; settings: 50 μM, 72 hours
Procedure: as §3

[15] = tested on: Wi38 cells; test: MTT colorimetry, tumor cell growth/viability; assay type: cell-based, human; settings: 50 μM, 72 hours
Procedure: as §3

[16] = tested on: U87-MG cells; test: MTT colorimetry, tumor cell growth/viability; assay type: cell-based, human; settings: 50 μM, 72 hours
Procedure: as §3

[17] = tested on: H1299 cells; test: MTT colorimetry, tumor cell growth/viability; assay type: cell-based, human; settings: 50 μM, 72 hours
Procedure: as §3

[18] = animal experiments, Fleming and Buyniski 1979; cited from earlier work
[19] = tested on: SMMC7721 cells; test: Cell cycle distribution by PI staining and flow cytometry; assay type: cell-based, human; settings: 100 nM, 24 hours
Procedure: as §1
(§4) In order to determine whether Anagrelide had affected the cell cycle of tumor cells, SMMC7721, HeLa, SW1116 were taken as example to represent sensitive cells and relatively sensitive cells to detect the effect on cell cycle of Anagrelide by PI staining and flow cytometry (FIG. 4 and FIG. 5).

[20] = tested on: HeLa cells; test: as above; assay type: cell-based, human; settings: 100 nM, 24 hours
Procedure: as §1, §4

[21] = tested on: SW1116 cells; test: as above; assay type: cell-based, human; settings: 100 nM, 24 hours
Procedure: as §1, §4

[22] = Body weight of tumor-bearing nude mice; assay type: in vivo, BALB/c naked mouse; settings: 21 days
Procedure: Under aseptic conditions, tumor cells in the proliferation stage were taken. The cell concentration was adjusted after digestion, seeded at right armpit of nude mice, and the inoculated volume was 0.1 mL. Tumor diameter was measured with vernier caliper, after the tumor was grown to 200-300 mm^3, the tumor-bearing mice were selected, and randomly divided into 3 groups (n=4) according to the size of the tumors: negative control group, Anagrelide I (10 mg/kg), Anagrelide II (30 mg/kg). Each group was intragastric administrated, the day of administration was recorded as d1, the negative control group was given same amount of vehicle, and then the long and short diameters of tumor were measured twice a week, while the body weights of mice were weighed. At the 21th day of the administration, the animals were sacrificed and the tumor was dissected and weighed. Before the animals were sacrificed, eyeball was taken for blood sample, the number of white blood cell (WBC), red blood cell (RBC), concentration of hemoglobin (Hb) and number of platelet (PLT) were measured.

Compound: O=C1CN2Cc3c(ccc(Cl)c3Cl)N=C2N1 [Anagrelide, 6,7-dichloro-1,5-dihydro-imidazo [2,1-b] quinazolin-2 (3H)-one]
- effect on cell cycle (cycle arrest) [1]: a significant cycle arrest phenomenon was produced
- effect on cell cycle (cycle arrest) [2]: the cycle arrest was very strong
- effect on cell cycle (cycle arrest) [3]: a significant cycle arrest phenomenon was produced
- effect on cell cycle (cycle arrest) [4]: the cycle arrest was very strong
- cell growth status, real-time monitoring [5]: ultimately induced the cell death
- cell growth status, real-time monitoring [6]: did not cause the cell apoptosis within 72 hours, but the growth was suppressed
- cell growth status, real-time monitoring [7]: ultimately induced the cell death
- cell growth status, real-time monitoring [8]: did not cause the cell apoptosis within 72 hours, but the growth was suppressed
- cell growth status, real-time monitoring [9]: ultimately induced the cell death
- cell growth status, real-time monitoring [10]: did not cause the cell apoptosis within 72 hours, but the growth was suppressed
- cell growth status, real-time monitoring [11]: ultimately induced the cell death
- inhibition of cell growth [12]: inhibited their growth
- inhibition of cell growth [13]: inhibited their growth
- inhibition of cell growth [14]: inhibited their growth
- inhibition of cell growth [15]: inhibited their growth
- inhibition of cell growth [16]: inhibited their growth
- inhibition of cell growth [17]: inhibited their growth
- anti-thrombotic function [18]: significant anti-thrombotic function
- effect on cell cycle (cycle arrest) [19]: a significant G1, G2 cycle arrest was produced; also recorded: the cycle arrest was very strong
- effect on cell cycle (cycle arrest) [20]: a significant G1, G2 cycle arrest was produced; also recorded: the cycle arrest was very strong
- effect on cell cycle (cycle arrest) [21]: a relatively weaker effect of cycle arresting; also recorded: a significant cycle arrest phenomenon was produced
- effect on animal body weight ([22]; 10 mg/kg intragastric): no significant difference from the negative control group
- effect on animal body weight ([22]; 30 mg/kg intragastric): no significant difference from the negative control group
